The results in this text go back to BindingDB's records for doi:10.1021/cb500009r (Shanghai Center For Systems Biomedicine, 2014).

For orientation: IC50 means the concentration that inhibits the measured activity by half.

Experiment [1] deals with T1, Dopa decarboxylase (Aromatic L-amino acid decarboxylase), isoform CRA_a (Homo sapiens, UniProt Q53Y41).
T1 sequence (Q53Y41 whole entry): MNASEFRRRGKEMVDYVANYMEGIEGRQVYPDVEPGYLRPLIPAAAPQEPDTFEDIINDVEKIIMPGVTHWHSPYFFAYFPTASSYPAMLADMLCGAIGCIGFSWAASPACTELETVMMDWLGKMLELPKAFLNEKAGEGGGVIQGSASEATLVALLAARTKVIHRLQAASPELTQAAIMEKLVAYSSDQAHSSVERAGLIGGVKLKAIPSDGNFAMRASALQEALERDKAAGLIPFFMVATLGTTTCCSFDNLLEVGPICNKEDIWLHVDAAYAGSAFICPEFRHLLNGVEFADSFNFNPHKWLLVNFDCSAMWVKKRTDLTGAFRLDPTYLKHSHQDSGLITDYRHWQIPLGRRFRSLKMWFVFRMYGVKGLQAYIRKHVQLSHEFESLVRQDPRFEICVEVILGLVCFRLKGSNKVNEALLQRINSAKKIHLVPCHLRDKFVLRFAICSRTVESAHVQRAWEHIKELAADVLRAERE
In words: DDC-MDH-PEPC-Linked assay. The following applies: pH 8.05; 37 °C. On the procedure: To the wells of a 384-well polypropylene plate, 1 µL DMSO (control) or test compounds at indicated concentrations were added, followed by the addition of 24.5 µL enzyme mix [50 mM Tris-HCl, 50 mM NaCl, 0.015% (w/v) BSA, 5 mM MgCl2, 2 mM β-mercaptoethanol, 760 µM NADH, 330 nM PEPC, 100 µM PLP and 284 nM hDDC, pH 8.05], and 24.5 µL substrate mix [50 mM Tris-HCl containing 50 mM NaCl, 0.015% (w/v) BSA, 5 mM MgCl2, 2 mM β-mercaptoethanol, 10 mM PPPA, 0.49 U MDH and 1.5 mM L-DOPA, pH 8.05]. The plate was sealed and incubated for 1 h in 37 °C. The OD was taken at 340 nm.

Experiment [2] deals with Cystathionine gamma-lyase (Homo sapiens, UniProt P32929). In words: Human CSE enzyme assay. Particulars: pH 7; 37 °C. On the procedure:
500 nM hCSE in optimal buffer (50 mM Hepes, pH 7.0; final concentration) was incubated with compound for 45 min in the 192-tandem-well plate before adding substrate (5 mM L-cysteine; final concentration). The reaction was then incubated at 37 °C for 60 min before the absorbance at 413 nm of DTNB was measured.

Sequence of Cystathionine gamma-lyase (P32929 whole entry): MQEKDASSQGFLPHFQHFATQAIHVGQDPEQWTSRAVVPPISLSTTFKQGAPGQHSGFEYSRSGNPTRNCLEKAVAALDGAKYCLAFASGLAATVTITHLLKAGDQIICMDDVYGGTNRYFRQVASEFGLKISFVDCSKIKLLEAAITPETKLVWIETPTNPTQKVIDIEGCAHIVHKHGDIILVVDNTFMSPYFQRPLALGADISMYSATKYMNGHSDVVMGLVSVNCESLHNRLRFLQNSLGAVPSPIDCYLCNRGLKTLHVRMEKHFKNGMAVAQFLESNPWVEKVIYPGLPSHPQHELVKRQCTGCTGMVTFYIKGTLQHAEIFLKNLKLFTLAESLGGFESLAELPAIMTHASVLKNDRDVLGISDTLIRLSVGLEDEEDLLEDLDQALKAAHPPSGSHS

Consider `COc1ccc(C(CCc2ccc(O)c(OC)c2)c2cc(CCCc3ccc(O)c(OC)c3)c(O)cc2OC)c(O)c1` (stereo not drawn) [Euonydiarylpropane C (3)], for which the IC50 in experiment [1] and in experiment [2] was over 200 µM throughout.
Consider `COc1cc(CC=C(c2cc(O)c(OC)cc2O)c2c(OC)cc3c(c2O)CCC(c2ccc(O)c(O)c2)O3)ccc1O` (stereo not drawn) [(+)-Euonyquinone C (9)], for which the IC50 in experiment [1] is 100 µM; in experiment [2], over 200 µM.
On the same counts, the results for `COc1ccc(CCCc2ccc(O)c(OC)c2)c(O)c1` [1-(2-hydroxy-4-meth-oxyphenyl)-3-(4-hydroxy-3-methoxyphenyl)propane (12)] are over 200 µM and over 200 µM.
On the same counts, the results for `COC1=CC(=O)C(CC(=O)Cc2ccc(O)c(OC)c2)=C(c2cc(CCCc3ccc(O)c(OC)c3)c(OC)cc2O)C1=O` [Euonyquinone A (5)] are 11.5 µM and over 200 µM.
In the case of `COc1cc(CC=C(c2cc(O)c(OC)cc2O)c2c(OC)cc3c(c2O)CCC(c2ccc(O)c(OC)c2)O3)ccc1O` (stereo not drawn) [Euonyquinone B (7)], the half-maximal inhibitory concentration (IC50) in experiment [1] is 50 µM; in experiment [2] it was over 200 µM.
On to `COc1cc(CCCc2cc(C(CCc3ccc(O)c(OC)c3)c3cc(OC)c(OC)cc3O)c(OC)cc2O)ccc1O` (stereo not drawn) [Euonydiarylpropane A (1)], for which the IC50 is 100 µM in experiment [1] and over 200 µM in experiment [2].
Turning to `COc1ccc2c(c1)O[C@@H](c1ccc(O)c(O)c1)CC2` [(2R)-3′,4′-Dihydroxy-7-methoxyflavan (13)], the IC50 in experiment [1] and in experiment [2] was over 200 µM throughout.
`COc1cc(CC=C(c2cc(O)c(OC)cc2O)c2cc(CCCc3ccc(O)c(OC)c3)c(O)cc2OC)ccc1O` [Combrequinone B (6)]: the IC50 was 21.6 µM in experiment [1] and over 200 µM in experiment [2].
On the same counts, the results for `COc1cc(CCCc2cc(C(CCc3ccc(O)c(OC)c3)c3cc(O)c(OC)cc3OC)c(O)cc2OC)ccc1O` (stereo not drawn) [Euonydiarylpropane D (4)] are over 200 µM and over 200 µM.
On to `COc1cc(CCCc2ccc(OC)c(O)c2OC)ccc1O` [Broussonin F (11)], for which the half-maximal inhibitory concentration (IC50) in experiment [1] and in experiment [2] was over 200 µM throughout.
With `COc1cc(OC)c2c(c1)O[C@@H](c1ccc(O)c(O)c1)CC2` [(2R)-3′,4′-Dihydroxy-5,7-methoxyflavan (14)], the IC50 in experiment [1] and in experiment [2] was over 200 µM each time.
For `COc1cc(CCCc2cc(C(CCc3ccc(O)c(OC)c3)c3cc(OC)c(OC)cc3O)c(O)cc2OC)ccc1O` (stereo not drawn) [Euonydiarylpropane B (2)], the results for the IC50 in experiment [1] and in experiment [2] were 100 µM and over 200 µM, respectively.
Take `COc1cc(CCCc2ccc(O)cc2OC)ccc1O` [Griffithane B (10)]: the IC50 in experiment [1] and in experiment [2] was over 200 µM each time.
As for `C[C@](N)(Cc1ccc(O)c(O)c1)C(=O)O` [SMR000059170], the concentration for half-maximal inhibition (IC50) worked out at 1200 µM in experiment [1] and 3000 µM in experiment [2].
